Calls of active or inactive are those of the source. No cut-off for these calls is given here.
Columns and labels:
[1] = target: Basement membrane-specific heparan sulfate proteoglycan core protein (Homo sapiens) (UniProt P98160); assay: Inhibition of HSPG2 transcriptional activation in human KMS-11 cells assessed as reduction in HSPG2 mRNA expression at 0.5 uM by qRT-PCR analysis; assay type: cell-based
U2932 = assay: Antiproliferative activity against human U2932 cells assessed as inhibition of cell growth incubated for 6 days by CCK-8 assay; assay type: functional, cell-based; conditions: U2932, 144 h
MOLT-4 = assay: Antiproliferative activity against human MOLT-4 cells harboring wild type NSD2 assessed as inhibition of cell growth incubated for 6 days by CCK-8 assay; assay type: functional, cell-based; conditions: MOLT-4, 144 h
[2] = Cmax in ICR mouse at 3 mg/kg, po measured for 24 hrs by LC-MS/MS analysis; assay type: ADME, organism-based; design: dose 3 mg/kg, time 24 hrs, route po; conditions: in vivo
CMK = assay: Antiproliferative activity against human CMK cells harboring wild type NSD2 assessed as inhibition of cell growth incubated for 6 days by CCK-8 assay; assay type: functional, cell-based; conditions: 144 h
MOLM-13 = assay: Antiproliferative activity against human MOLM-13 cells harboring wild type NSD2 assessed as inhibition of cell growth incubated for 6 days by CCK-8 assay; assay type: functional, cell-based; conditions: MOLM-13, 144 h
KMS-11 [3] = assay: Induction of apoptosis in human KMS-11 cells assessed as dead cells at 0.5 uM incubated for 72 hrs by Annexin V-FITC/PI staining based flow cytometry analysis (reference value: 6.48%); assay type: functional
[4] = Apparent permeability coefficient, Papp in MDCK cells; assay type: ADME, cell-based, Canis lupus familiaris; conditions: dog
[5] = target: Histone-lysine N-methyltransferase NSD3 (Homo sapiens, UniProt Q9BZ95); assay: Inhibition of NSD3 (unknown origin)
[6] = target: Ras-related protein R-Ras2 (Homo sapiens) (UniProt P62070); assay: Inhibition of RRAS2 transcriptional activation in human KMS-11 cells assessed as reduction in RRAS2 mRNA expression at 0.5 uM by qRT-PCR analysis; assay type: cell-based
KMS-11 [7] = assay: Induction of apoptosis in human KMS-11 cells assessed as upregulation of BIM protein expression at 0.2 to 0.8 uM by Western blot analysis; assay type: functional, cell-based; conditions: dose 0.2-0.8 µM
[8] = Half life in ICR mouse at 3 mg/kg, po measured for 24 hrs by LC-MS/MS analysis; assay type: ADME, organism-based; conditions: in vivo
[9] = target: Neural cell adhesion molecule 1 (Homo sapiens) (UniProt P13591); assay: Inhibition of NCAM1 transcriptional activation in human KMS-11 cells assessed as reduction in H3K36me2 level in promoter region by ChIP-qPCR analysis; assay type: cell-based
KMS-11 [10] = assay: Antitumor activity against human KMS-11 cells xenografted in SCID mouse assessed as tumor growth inhibition at 75 mg/kg, po administered daily for 21 days and measured every 3 days relative to control; assay type: functional; conditions: KMS-11, 504 h, time 21 day, read-out: TGI
KMS-11 [11] = assay: Induction of apoptosis in human KMS-11 cells assessed as live cells at 0.8 uM incubated for 72 hrs by Annexin V-FITC/PI staining based flow cytometry analysis (reference value: 83.1%); assay type: functional
HL-60 = assay: Antiproliferative activity against human HL-60 cells harboring wild type NSD2 assessed as inhibition of cell growth incubated for 6 days by CCK-8 assay; assay type: functional, cell-based; conditions: HL-60, 144 h
[12] = Half life in ICR mouse at 1 mg/kg, iv measured for 24 hrs by LC-MS/MS analysis; assay type: ADME, organism-based; conditions: in vivo
[13] = target: Serine/threonine-protein kinase mTOR (Homo sapiens) (UniProt P42345); assay: Modulation of mTOR signaling pathway in human KMS-11 cells at 1 uM incubated for 48 hrs by RNA-Seq analysis; assay type: cell-based; conditions: filed as modulator
[14] = Observed clearance in ICR mouse at 1 mg/kg, iv measured for 24 hrs by LC-MS/MS analysis; assay type: ADME, organism-based; conditions: in vivo
[15] = target: Histone-lysine N-methyltransferase 2A (Homo sapiens, UniProt Q03164); assay: Inhibition of MLL1 (unknown origin) using SAM as substrate preincubated for 10 mins followed by substrate addition and measured after 4 hrs by HTRF analysis
[16] = target: Histone-lysine N-methyltransferase EZH2 (Homo sapiens, UniProt Q15910); assay: Inhibition of EZH2 (unknown origin) using SAM as substrate preincubated for 10 mins followed by substrate addition and measured after 4 hrs by HTRF analysis
[17] = target: Hepatocyte growth factor receptor (Homo sapiens) (UniProt P08581); assay: Inhibition of MET transcriptional activation in human KMS-11 cells assessed as reduction in H3K36me2 level in promoter region by ChIP-qPCR analysis; assay type: cell-based
[18] = target: Protransforming growth factor alpha (Homo sapiens) (UniProt P01135); assay: Inhibition of TGFA transcriptional activation in human KMS-11 cells assessed as reduction in H3K36me2 level in promoter region by ChIP-qPCR analysis; assay type: cell-based
[19] = target: Protein arginine N-methyltransferase 5 (Homo sapiens, UniProt O14744); assay: Inhibition of PRMT5 (unknown origin) by AlphaLISA assay
[20] = AUClast in ICR mouse at 3 mg/kg, po measured for 24 hrs by LC-MS/MS analysis; assay type: ADME, organism-based; design: dose 3 mg/kg, time 24 hrs, route po; conditions: in vivo
KMS-11 [21] = assay: Induction of apoptosis in human KMS-11 cells assessed as early apoptotic cells at 0.5 uM incubated for 72 hrs by Annexin V-FITC/PI staining based flow cytometry analysis (reference value: 3.96%); assay type: functional
KMS-11 [22] = assay: Induction of apoptosis in human KMS-11 cells assessed as late apoptotic cells at 0.5 uM incubated for 72 hrs by Annexin V-FITC/PI staining based flow cytometry analysis (reference value: 6.47%); assay type: functional
[23] = Tmax in ICR mouse at 3 mg/kg, po measured for 24 hrs by LC-MS/MS analysis; assay type: ADME, organism-based; conditions: in vivo
[24] = target: Neural cell adhesion molecule 1 (Homo sapiens) (UniProt P13591); assay: Inhibition of NCAM1 transcriptional activation in human KMS-11 cells assessed as reduction in NCAM1 mRNA expression at 0.5 uM by qRT-PCR analysis; assay type: cell-based
[25] = AUClast in ICR mouse at 1 mg/kg, iv measured for 24 hrs by LC-MS/MS analysis; assay type: ADME, organism-based; design: dose 1 mg/kg, time 24 hrs, route iv; conditions: in vivo
RS4-11 = assay: Antiproliferative activity against human RS4-11 cells harboring NSD2 E1099K mutant assessed as inhibition of cell growth incubated for 6 days by CCK-8 assay; assay type: functional, cell-based; conditions: RS4-11, 144 h
KMS-11 [26] = assay: Induction of apoptosis in human KMS-11 cells assessed as dead cells at 0.8 uM incubated for 72 hrs by Annexin V-FITC/PI staining based flow cytometry analysis (reference value: 6.48%); assay type: functional
KMS-11 [27] = assay: Antiproliferative activity against human KMS-11 cells assessed as inhibition of cell growth incubated for 6 days by CCK-8 assay; assay type: functional, cell-based; conditions: KMS-11, 144 h
[28] = target: Hepatocyte growth factor receptor (Homo sapiens) (UniProt P08581); assay: Inhibition of MET transcriptional activation in human KMS-11 cells assessed as reduction in MET mRNA expression at 0.5 uM by qRT-PCR analysis; assay type: cell-based
[29] = target: Histone-lysine N-methyltransferase 2D (Homo sapiens, UniProt O14686); assay: Inhibition of MLL2 (unknown origin) using SAM as substrate preincubated for 10 mins followed by substrate addition and measured after 4 hrs by HTRF analysis

Chain of Neural cell adhesion molecule 1 (Homo sapiens) (P13591 whole entry): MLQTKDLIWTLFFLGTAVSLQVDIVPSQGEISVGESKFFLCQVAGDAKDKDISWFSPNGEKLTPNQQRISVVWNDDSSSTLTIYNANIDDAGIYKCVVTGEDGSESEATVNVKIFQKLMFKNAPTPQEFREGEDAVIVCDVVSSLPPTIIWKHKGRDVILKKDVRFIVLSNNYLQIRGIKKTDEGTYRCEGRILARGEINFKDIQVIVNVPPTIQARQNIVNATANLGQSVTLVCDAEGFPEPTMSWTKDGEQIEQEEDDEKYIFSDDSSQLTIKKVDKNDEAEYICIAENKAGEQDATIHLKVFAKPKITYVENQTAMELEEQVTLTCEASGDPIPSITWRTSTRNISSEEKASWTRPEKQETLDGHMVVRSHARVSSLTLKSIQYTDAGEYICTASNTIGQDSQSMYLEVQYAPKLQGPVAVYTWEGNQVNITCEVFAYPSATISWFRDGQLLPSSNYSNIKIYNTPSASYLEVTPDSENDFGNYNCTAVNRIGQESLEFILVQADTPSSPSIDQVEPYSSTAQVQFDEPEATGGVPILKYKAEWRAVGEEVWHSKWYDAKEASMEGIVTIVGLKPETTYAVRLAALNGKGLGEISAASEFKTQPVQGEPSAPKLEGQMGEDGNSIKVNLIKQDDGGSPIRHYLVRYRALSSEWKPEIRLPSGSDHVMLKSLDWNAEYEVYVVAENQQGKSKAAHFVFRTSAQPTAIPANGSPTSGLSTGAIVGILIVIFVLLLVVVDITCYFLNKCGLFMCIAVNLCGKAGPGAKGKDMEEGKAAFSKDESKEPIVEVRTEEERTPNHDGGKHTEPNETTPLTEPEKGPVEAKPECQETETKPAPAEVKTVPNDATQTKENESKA
Chain of Hepatocyte growth factor receptor (Homo sapiens) (P08581 whole entry): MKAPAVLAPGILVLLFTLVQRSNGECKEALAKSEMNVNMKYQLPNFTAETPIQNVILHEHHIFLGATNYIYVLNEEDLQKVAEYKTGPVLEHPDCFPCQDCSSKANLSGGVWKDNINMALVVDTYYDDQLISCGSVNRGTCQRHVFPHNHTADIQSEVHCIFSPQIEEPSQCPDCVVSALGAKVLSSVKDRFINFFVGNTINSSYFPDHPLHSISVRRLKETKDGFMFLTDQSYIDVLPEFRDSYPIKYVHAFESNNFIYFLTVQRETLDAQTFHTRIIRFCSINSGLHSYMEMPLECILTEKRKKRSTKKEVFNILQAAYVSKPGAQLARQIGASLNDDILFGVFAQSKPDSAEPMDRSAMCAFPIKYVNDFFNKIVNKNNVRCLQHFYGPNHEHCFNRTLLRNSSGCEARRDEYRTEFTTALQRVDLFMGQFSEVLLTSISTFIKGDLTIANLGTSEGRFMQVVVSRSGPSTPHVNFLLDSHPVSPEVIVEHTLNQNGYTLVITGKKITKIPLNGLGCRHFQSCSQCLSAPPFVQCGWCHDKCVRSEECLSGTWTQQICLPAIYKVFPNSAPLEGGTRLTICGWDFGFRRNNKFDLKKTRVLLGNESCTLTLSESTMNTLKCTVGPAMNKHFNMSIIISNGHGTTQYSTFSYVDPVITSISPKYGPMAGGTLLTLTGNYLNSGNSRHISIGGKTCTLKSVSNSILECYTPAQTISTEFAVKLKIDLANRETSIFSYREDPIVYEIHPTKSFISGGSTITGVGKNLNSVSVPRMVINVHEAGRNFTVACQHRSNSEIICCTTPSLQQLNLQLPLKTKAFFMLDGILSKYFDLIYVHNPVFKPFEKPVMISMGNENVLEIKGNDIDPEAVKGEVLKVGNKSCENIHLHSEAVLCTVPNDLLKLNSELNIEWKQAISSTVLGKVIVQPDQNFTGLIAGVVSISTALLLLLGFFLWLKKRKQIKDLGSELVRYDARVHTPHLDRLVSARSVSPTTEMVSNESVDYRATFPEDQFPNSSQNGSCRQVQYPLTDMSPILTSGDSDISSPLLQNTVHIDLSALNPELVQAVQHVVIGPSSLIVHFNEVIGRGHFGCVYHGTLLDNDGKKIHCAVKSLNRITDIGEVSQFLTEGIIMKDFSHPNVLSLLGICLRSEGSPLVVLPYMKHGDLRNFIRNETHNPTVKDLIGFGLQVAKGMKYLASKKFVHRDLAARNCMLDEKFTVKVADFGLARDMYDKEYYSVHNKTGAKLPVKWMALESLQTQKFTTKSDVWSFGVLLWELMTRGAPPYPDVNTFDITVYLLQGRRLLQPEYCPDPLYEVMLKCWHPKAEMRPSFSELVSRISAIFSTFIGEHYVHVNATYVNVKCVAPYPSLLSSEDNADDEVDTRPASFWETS
Chain of Protein arginine N-methyltransferase 5 (O14744 whole entry): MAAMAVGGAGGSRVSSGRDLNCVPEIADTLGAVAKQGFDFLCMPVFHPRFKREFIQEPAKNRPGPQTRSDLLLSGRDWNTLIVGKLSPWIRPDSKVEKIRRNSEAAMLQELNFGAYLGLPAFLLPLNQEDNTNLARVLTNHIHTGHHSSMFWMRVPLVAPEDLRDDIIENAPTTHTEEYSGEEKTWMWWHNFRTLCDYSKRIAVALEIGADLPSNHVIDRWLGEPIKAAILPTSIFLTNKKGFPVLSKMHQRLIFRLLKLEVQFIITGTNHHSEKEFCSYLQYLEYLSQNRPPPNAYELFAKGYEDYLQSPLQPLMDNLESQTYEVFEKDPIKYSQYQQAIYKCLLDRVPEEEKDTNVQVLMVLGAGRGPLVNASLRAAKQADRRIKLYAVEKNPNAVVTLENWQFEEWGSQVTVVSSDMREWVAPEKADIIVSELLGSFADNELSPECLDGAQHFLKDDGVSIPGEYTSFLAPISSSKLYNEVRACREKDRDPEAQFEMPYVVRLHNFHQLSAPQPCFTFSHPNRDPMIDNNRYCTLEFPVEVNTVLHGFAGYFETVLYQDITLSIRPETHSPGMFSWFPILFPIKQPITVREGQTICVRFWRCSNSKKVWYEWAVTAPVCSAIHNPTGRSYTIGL
Chain of Histone-lysine N-methyltransferase NSD3 (Q9BZ95 whole entry): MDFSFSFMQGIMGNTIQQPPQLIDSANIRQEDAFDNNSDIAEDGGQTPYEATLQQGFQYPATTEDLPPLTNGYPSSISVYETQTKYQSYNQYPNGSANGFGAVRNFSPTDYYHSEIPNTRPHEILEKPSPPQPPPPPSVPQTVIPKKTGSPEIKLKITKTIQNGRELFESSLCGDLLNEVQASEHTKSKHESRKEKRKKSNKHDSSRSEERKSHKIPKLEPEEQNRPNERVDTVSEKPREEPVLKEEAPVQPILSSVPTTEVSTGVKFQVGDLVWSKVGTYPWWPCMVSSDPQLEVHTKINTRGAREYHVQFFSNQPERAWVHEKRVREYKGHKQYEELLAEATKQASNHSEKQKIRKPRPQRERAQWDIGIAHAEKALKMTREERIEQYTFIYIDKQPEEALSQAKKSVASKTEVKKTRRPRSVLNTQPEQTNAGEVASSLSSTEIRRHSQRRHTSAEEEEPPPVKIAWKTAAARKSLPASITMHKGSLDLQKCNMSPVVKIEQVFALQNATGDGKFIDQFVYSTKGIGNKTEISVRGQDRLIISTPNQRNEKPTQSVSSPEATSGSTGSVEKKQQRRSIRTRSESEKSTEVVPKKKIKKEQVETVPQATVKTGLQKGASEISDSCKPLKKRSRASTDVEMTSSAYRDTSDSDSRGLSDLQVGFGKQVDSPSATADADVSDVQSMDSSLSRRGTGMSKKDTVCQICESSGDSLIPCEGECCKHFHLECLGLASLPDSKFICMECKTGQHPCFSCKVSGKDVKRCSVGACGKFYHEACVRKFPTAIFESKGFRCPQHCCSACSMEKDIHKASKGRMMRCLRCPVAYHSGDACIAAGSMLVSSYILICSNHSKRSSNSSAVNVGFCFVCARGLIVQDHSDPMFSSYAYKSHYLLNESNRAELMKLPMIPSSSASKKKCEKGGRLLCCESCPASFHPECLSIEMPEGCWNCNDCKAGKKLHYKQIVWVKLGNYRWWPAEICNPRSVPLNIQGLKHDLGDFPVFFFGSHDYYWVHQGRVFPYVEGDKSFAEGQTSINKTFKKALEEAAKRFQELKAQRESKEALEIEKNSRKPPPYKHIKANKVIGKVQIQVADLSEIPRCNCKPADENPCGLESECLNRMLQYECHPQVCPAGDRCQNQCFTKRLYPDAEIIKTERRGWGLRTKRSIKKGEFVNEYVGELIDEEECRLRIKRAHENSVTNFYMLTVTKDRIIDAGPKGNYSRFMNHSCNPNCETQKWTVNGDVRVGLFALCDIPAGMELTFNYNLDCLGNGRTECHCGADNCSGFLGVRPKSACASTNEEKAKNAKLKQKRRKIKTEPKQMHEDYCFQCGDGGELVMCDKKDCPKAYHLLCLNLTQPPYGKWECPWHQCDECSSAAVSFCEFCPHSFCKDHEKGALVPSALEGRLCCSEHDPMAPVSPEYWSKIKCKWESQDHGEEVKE
Chain of Ras-related protein R-Ras2 (Homo sapiens) (P62070 whole entry): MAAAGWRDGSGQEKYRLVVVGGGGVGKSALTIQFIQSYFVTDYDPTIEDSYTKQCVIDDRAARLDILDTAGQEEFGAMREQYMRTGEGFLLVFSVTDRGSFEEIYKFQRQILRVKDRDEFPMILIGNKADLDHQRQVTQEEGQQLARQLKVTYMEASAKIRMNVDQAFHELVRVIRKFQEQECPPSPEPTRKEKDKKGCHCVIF
Chain of Protransforming growth factor alpha (Homo sapiens) (P01135 whole entry): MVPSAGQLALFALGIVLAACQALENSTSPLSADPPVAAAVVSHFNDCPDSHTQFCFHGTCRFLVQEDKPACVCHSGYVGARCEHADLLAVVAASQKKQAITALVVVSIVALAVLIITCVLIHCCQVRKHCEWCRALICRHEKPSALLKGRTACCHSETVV

CC#CC(=O)NC12CC(NC3=C(Cl)C(=O)c4ncccc4C3=O)(C1)C2
inhibition [1]: Active | IC50 (U2932): 9.11 µM | IC50 (MOLT-4): 1.23 µM | Cmax [2]: 4780 ng/mL | IC50 (CMK): 2.6 µM | IC50 (MOLM-13): 3.17 µM | Activity (KMS-11 [3]): 6.33% | Papp [4]: 45 ×10⁻⁶ cm/s | IC50 [5]: 0.75 µM | inhibition [6]: Active | Activity (KMS-11 [7]): Active | half-life [8]: 6.71 h | inhibition [9]: Active | inhibition in vivo at 75 mg/kg (KMS-11 [10]): 56% | Activity (KMS-11 [11]): 55% | IC50 (HL-60): 2.66 µM | half-life [12]: 8.53 h | Activity [13]: Active | clearance [14]: 3.8 mL/min/kg | IC50 [15]: > 10 µM | IC50 [16]: 0.25 µM | inhibition [17]: Active | inhibition [18]: Active | IC50 [19]: > 10 µM | AUC(0-t) at 24 h [20]: 42700 ng·h/mL | Activity (KMS-11 [21]): 14.1% | Activity (KMS-11 [22]): 15.7% | Tmax [23]: 1.5 h | inhibition [24]: Active | AUC(0-t) at 24 h [25]: 5180 ng·h/mL | IC50 (RS4-11): 0.304 µM | Activity (KMS-11 [26]): 5.98% | IC50 (KMS-11 [27]): 0.27 µM | inhibition [28]: Active | IC50 [29]: > 10 µM
